Experimental data from US10166253B2, “Positively charged co-polymers for use as antimicrobial agents” (priority 2014, dated 2019).

How the values were obtained:
[1] = system: P. aeruginosa (strain PAO1, ATCC 15692); assay: Colony-forming unit (CFU) counting; type: cell-based, Pseudomonas aeruginosa; conditions: 30 minutes at 37° C. in PBS, in comparison with LL-37
Method: Late-log phase E. coli (strain NCTC 10418), P. aeruginosa (strain PAO1, ATCC 15692) and S. aureus (Wood 46, NCTC 7121) were resuspended in PBS and treated with different concentrations of glatiramer acetate (GA) or LL-37 (Innovagen, Lund, Sweden) and incubated on a shaker for 30 minutes at 37° C. Subsequently, a dilution series was performed to achieve a suitable amount of bacteria on the 5% blood agar plates. The 5% blood agar streak plates were cultured at 37° C. for 16 h and the resulting CFUs on the blood agar plates were imaged with a digital camera and counted with the aid of the software ImageJ 1.48v.

P. aeruginosa (PAO1) [2] = assay: Transmission electron microscopy of treated bacteria; type: cell-based, Pseudomonas aeruginosa
Excerpt: (§1) Transmission electron microscopy (TEM) was applied to examine the ultrastructural changes in P. aeruginosa (PAO1), S. aureus (Wood 46) and E. coli (NCTC 10418) induced after treatment with GA and LL-37. […] This critical alteration in the outer membrane of E. coli has previously been described as a disintegration of the outer membrane into micelles and vesicle-like structures (Meincken, M., D. L. Holroyd, and M. Rautenbach, Atomic force microscopy study of the effect of antimicrobial peptides on the cell envelope of Escherichia coli. Antimicrob Agents Chemother, 2005. 49(10): p. 4085-92). […] After incubation with LL-37 and GA, we found burst cells, but this observation was most significant after treatment with LL-37 (FIG. 9). Scale bar, 0.5 μm. Experiments were performed as 2 replicates.

E. coli (NCTC 10418) = assay: Antimicrobial susceptibility testing (MIC) by the oCelloScope system; type: cell-based, Escherichia coli; conditions: CAMHBT broth, SESA growth curves
Method: (§2) E. coli (strain NCTC 10418) and S. aureus (Wood 46, NCTC 7121) were grown overnight in Sensititre® cation-adjusted Mueller-Hinton broth with TES (CAMHBT, TREK Diagnostic System). Bacterial cell suspensions were adjusted to 0.5 McFarland standard using a nephelometer. Subsequently, bacteria were diluted in CAMHBT according to the recommended final inoculum size for broth dilution (5×10^5 colony-forming units (CFU) ml^−1) (Wiegand, I., K. Hilpert, and R. E. Hancock, Agar and broth dilution methods to determine the minimal inhibitory concentration (MIC) of antimicrobial substances. Nat Protoc, 2008. 3(2): p. 163-75) and analyzed in Nunc Edge 96-well plates by the oCelloScope system.
(§3) The oCelloScope is a digital time-lapse microscopy technology that scans through a fluid sample generating series of images as described in 2013 by Fredborg et al. (Fredborg, M., et al., Real-time optical antimicrobial susceptibility testing. J Clin Microbiol, 2013. 51(7): p. 2047-53). As a result of the tilted imaging plane, the images recorded by the oCelloScope system constitute a parallelepipedum that forms the image stack. […] Growth kinetics was determined by image stack processing based on contrast based Segmentation and Extraction of Surface Area (SESA). […]
(§4) The effect of GA on bacterial growth was further evaluated using, an optical screening system (oCelloScope) (FIG. 6). […]

S. aureus (Wood 46) [3] = assay: as above; type: cell-based, Staphylococcus aureus; conditions: CAMHBT broth, SESA growth curves
Method: as §2, §3, §4

P. aeruginosa (PAO1) [4] = assay: Binding of Alexa Fluor 488-labeled GA to bacteria (MFI by flow cytometry); set-up: species or system Pseudomonas aeruginosa; conditions: PBS + 50 mM NaCl, total salt 200 mM, GA 50 and 10 μg/ml
Method: GA was diluted in freshly made 0.1 M NaHCO3 and labeled with Alexa Fluor 488 according to manufacturer's instruction. Late-log phase E. coli (strain NCTC 10418), P. aeruginosa (strain PAO1, ATCC 15692) and S. aureus (Wood 46, NCTC 7121) were resuspended in PBS or PBS supplemented with 50 mM NaCl; treated with either 50 μg/ml or 10 μg/ml Alexa Fluor® 488-labeled GA and incubated on a shaker at 37° C. for 30 minutes. Hereafter, bacteria were diluted 1:100 in PBS and analyzed on a Novocyte™ flow cytometer.
This constitutes a problem when for example treating patients with cystic fibrosis. These patients have a high salt concentration in their lungs of about 150-200 mM, and it is therefore critical that drugs used for treating these patients are active at such high salt concentrations (Gilljam H et al., Scand J Clin Lab Invest. 1989 April; 49(2):121-4). Therefore, the binding capacity of GA to bacteria resuspended in PBS or in PBS supplemented with 50 mM NaCl. PBS+50 mM NaCl results in a total salt concentration of 200 mM. […]
Mean Fluorescence intensities (MFI) were assessed by flow cytometry to quantify the binding capacity of GA to the bacterial membrane. […]

S. aureus (Wood 46) [5] = assay: Transmission electron microscopy of treated bacteria; type: cell-based, Staphylococcus aureus
Excerpt: as §1

[6] = system: multi-resistant P. aeruginosa strain (CCUG59626); assay: Flow cytometry viability assay on multiresistant strain; type: cell-based, Pseudomonas aeruginosa; conditions: CCUG59626, ~10^8 cells/ml
Method: A multi-resistant P. aeruginosa strain (CCUG59626) (˜10^8 cells/ml) was incubated with varying concentrations of GA and LL-37. […] All experiments were performed as four replicates.

Glatiramer acetate [GA]
antibacterial effect by CFU counting (in words) [1]: higher antimicrobial activity
ultrastructural changes (TEM, in words) (P. aeruginosa (PAO1) [2]): dramatically reduced number of P. aeruginosa
MIC (E. coli (NCTC 10418)): 31 µg/mL
MIC (S. aureus (Wood 46) [3]): 500 µg/mL
binding capacity to bacteria (MFI, in words) (P. aeruginosa (PAO1) [4]): retained its binding capacity
ultrastructural changes (TEM, in words) (S. aureus (Wood 46) [5]): burst cells
susceptibility of multiresistant strain (in words) [6]: highly susceptible
